Assay results published in patent publication US20130005802A1, “TREATMENT OF WNT/FRIZZLED-RELATED DISEASES” (priority 2009, published 2013).

system: LEF/TCF transcription factor reporter (TOPFlash); assay: TOPFlash reporter assay in HEK293 cells; assay type: cell-based; settings: Homo sapiens, read-out: TopFlash assay: IC50
Experimental: To obtain a Frizzled1-GFP stable cell line (Fzd1GFP-U2OS), U2OS cells were transfected with pCS2ratFrizzled1-GFP and pLKO.1 (10:1 ratio by weight), using the Nucleofection transfection protocol from Amaxa, and stable receptor expressing clones were selected using 1.5 μg/mL puromycin in the culture medium. For generating TOPFlash stable cell lines, HEK293 cells were transfected with p8xTOPFlash, the Renilla luciferase plasmid, and pLKO.1 at a ratio by weight of 10:3:1 and stable clones selected using 1 μg/mL puromycin in the growth medium. pLKO.1 was used to confer puromycin resistance to the stable clones.
For the TOPFlash Luciferase assay the TOPFlash stable cells were seeded in 150 μL growing medium/well in 96-well plates at 100% confluency. Fifty microliters of conditioned medium containing the chemical compounds to be tested or DMSO were added to each well. After an 8 hr treatment, the cells were then washed once with PBS, and lysed with 80 μL MPER solution (Pierce, Rockford, Ill.). Thirty microliters of cell lysate were used for measuring luciferase activity in a 96-well plate reader (FluoStar Optima, BMG Labtech, Chicago, Ill.).
LEF/TCF transcription factor reporter (TOPFlash) assay is a general readout for canonical Wnt signaling pathways. […] A Renila luciferase plasmid was also generated to serve as an internal control.
The average TOPFlash reporter activity of Wnt3A plus DMSO treatment was set as 100%, and the relative reporter activity of Wnt3A plus the indicated concentration of niclosmide was calculated and plotted.
The compounds shown in Table 2 were purchased from Sigma-Aldrich (St. Louis, Mo.) or Chembridge (San Diego, Calif.). The activity of each of the compounds as a negative modulator of the Wnt/Frizzled signaling pathway was examined using the Top-flash assay, as described above.

IC50 [µM]	SMILES
< 1	COc1cc([N+](=O)[O-])ccc1NC(=O)c1cc(Cl)ccc1O [Compound 3-9, 5-chloro-2-hydroxy-N-(2-methoxy-4-nitrophenyl)benzamide]
< 1	O=C(Nc1ccc([N+](=O)[O-])cc1Cl)c1cc(Br)ccc1O [Compound 3-4, 5-bromo-N-(2-chloro-4-nitrophenyl)-2-hydroxybenzamide]
1 to 12.5	O=C(Nc1ccc([N+](=O)[O-])cc1Cl)c1ccccc1O [Compound 3-8, N-(2-chloro-4-nitrophenyl)-2-hydroxybenzamide]
1 to 12.5	O=C(Nc1ccc([N+](=O)[O-])cc1Br)c1ccccc1O [Compound 3-7, N-(2-bromo-4-nitrophenyl)-2-hydroxybenzamide]
> 12.5	O=C(Nc1ccc(NS(=O)(=O)c2ccc(Cl)cc2)cc1Cl)c1cc(Cl)ccc1O [Compound 3-1, 5-chloro-N-(2-chloro-4-{[(4-chlorophenyl)sulfonyl]amino}phenyl)-2-hydroxybenzamide]
1 to 12.5	O=C(Nc1ccc([N+](=O)[O-])cc1Cl)c1cc(Cl)cc(Cl)c1O [Compound 3-3, 3,5-dichloro-N-(2-chloro-4-nitrophenyl)-2-hydroxybenzamide]
> 12.5	O=C(Nc1cc(Cl)ccc1O)c1ccc([N+](=O)[O-])cc1 [Compound 3-10, N-(5-chloro-2-hydroxyphenyl)-4-nitrobenzamide]
> 12.5	CS(=O)(=O)c1ccc(NC(=O)c2cc(Cl)ccc2O)c(Cl)c1 [Compound 3-11, 5-chloro-N-[2-chloro-4-(methylsulfonyl)phenyl]-2-hydroxybenzamide]
> 12.5	O=C1c2ccc([N+](=O)[O-])cc2C(=O)N1c1cc(Cl)ccc1O [Compound 3-6, 2-(5-chloro-2-hydroxyphenyl)-5-nitro-1H-isoindole-1,3(2H)-dione]

Continued, compound first:

SMILES	IC50 [µM]
O=C(Nc1ccc(Br)cc1)c1cc(Br)cc(Br)c1O [Compound 2-4, 3,5-dibromo-N-(4-bromophenyl)-2-hydroxybenzamide]	> 12.5
O=C(Nc1ccc([N+](=O)[O-])cc1)c1cc(Cl)ccc1O [Compound 1-4, 5-chloro-2-hydroxy-N-(4-nitrophenyl)benzamide]	< 1
O=C(Nc1ccc(Oc2ccc(Cl)cc2)c(Cl)c1)c1cc(I)cc(I)c1O [Compound 2-2, Rafoxanide]	> 12.5
Cc1cc(C(C#N)c2ccc(Cl)cc2)c(Cl)cc1NC(=O)c1cc(I)cc(I)c1O (stereo not shown) [Compound 2-3, Closantel]	> 12.5
COc1ccc(Cl)cc1C(=O)Nc1ccc([N+](=O)[O-])cc1Cl [Compound 1-6, Benzamide, 5-chloro-N-(2-chloro-4-nitrophenyl)-2-methoxy-]	> 12.5
O=C(Nc1ccc([N+](=O)[O-])cc1)c1cc(Br)ccc1O [Compound 3-5, 5-bromo-2-hydroxy-N-(4-nitrophenyl)benzamide]	< 1
O=C(Nc1ccc([N+](=O)[O-])cc1Cl)c1cccc(Cl)c1 [Compound 1-7, Benzamide, 3-chloro-N-(2-chloro-4-nitrophenyl)-]	> 12.5
O=C(Nc1cc(Cl)cc(Cl)c1O)c1c(O)c(Cl)cc(Cl)c1Cl [Compound 2-1, Oxyclozanide]	> 12.5
Cc1cc([N+](=O)[O-])c(Cl)cc1NC(=O)c1ccccc1O [Compound 3-2, N-(5-chloro-2-methyl-4-nitrophenyl)-2-hydroxybenzamide]	< 1
Nc1ccc(NC(=O)c2cc(Cl)ccc2O)c(Cl)c1 [Compound 1-2, N-(4-amino-2-chlorophenyl)-5-chloro-2-hydroxybenzamide]	> 12.5
